Experimental data as given in US5102877A, “1-azabicyclo[3.2.0]hept-2-ene-2-carboxylic acid compounds” (Fujisawa Pharmaceutical Co., Ltd., priority 1989, dated 1992).

Tested on: S. aureus 6
Experiment: in vitro Antimicrobial Activity, two-fold agar-plate dilution method
Type: cell-based
Conditions: Staphylococcus aureus, heart infusion agar, 10^6 viable cells per ml, 37° C. for 20 hours, read-out: minimal inhibitory concentration (MIC)
Experimental: in vitro Antimicrobial Activity was determined by the two-fold agar-plate dilution method as described below.
One loopful of an overnight culture of a test strain in Trypticase-soy broth (10^6 viable cells per ml) was streaked on heart infusion agar (HI-agar) containing graded concentrations of the test compound, and the minimal inhibitory concentration (MIC) was expressed in terms of μg/ml after incubation at 37° C. for 20 hours.

`C[C@@H](O)[C@H]1C(=O)N2C(C(=O)O)=C(C3CCN(C=N)C3)C[C@H]12` (stereo partly drawn) [Example 12, (5R,6S)-3-(1-formimidoylpyrrolidin-3-yl)-6-[(1R)-1-hydroxyethyl]-7-oxo-1-azabicyclo[3.2.0]hept-2-ene-2-carboxylic acid] was tested, and the MIC was no more than 0.025 µg/mL.
